Publication PMC11674305, “Inhibition of Neural Crest Cell Migration by Strobilurin Fungicides and Other Mitochondrial Toxicants” (Cells, 2024)
Like-named read-outs stand apart in the source and are kept apart here.

What was measured:
[1] = cited from earlier work
neural crest cells (NCC) [2] = format: cell-based, human
Description: The research group initially developed the first version of the test in 2012 [40]. The test has been further improved and characterized. To perform the cMINC assay, NCCs were thawed in N2-S Medium and seeded on the day of migration-1 (DoM-1) on a 96-well polystyrene plate (Corning, Glendale, AZ, USA) around stoppers, to create a cell-free area of 2 mm diameter (Platypus Technologies, Madison, WI, USA). The cells were resuspended in N2-S Medium supplemented with […] of the cytokines EGF and FGF, and then counted and seeded around the stoppers at a density of 95,000 cells/cm^2. After 24 h, the stoppers were removed, and the medium was exchanged. […]
On day 2, cells were stained with 533 nM calcein-AM and 1 μg/mL H-33342 (both from Sigma, Steinheim, Germany) and observed using two different channels on the Cellomics ArrayScan VTI imaging microscope (Thermo Fisher, Pittsburgh, PA, USA) to assess viability and migration. […] Cell viability was assessed by taking four pictures outside of the ROI with 10× magnification objective. Viable cells were defined as H-33342 and calcein-AM double-positive cells and calculated by an automatic algorithm of the ArrayScan VTI 700 Series software as described earlier. […] The average response (relative to solvent control) of the lowest two test concentrations was calculated, and all other data points of the same curve were divided by this average value. […]

neural crest cells (NCC) [3] = assay: Transwell migration assay (FBS chemoattractant, 6 h); format: cell-based, human; conditions: glucose or galactose medium
Description: Cells were seeded at a density of 50,000 cells/well (150,000 cells/cm^2) into the upper chamber (insert) of the 96-well transwell plates (pore size 8 μm, polycarbonate membrane, Corning, Glendale, AZ, USA). The cells were stimulated to migrate through the membrane by medium supplemented with 5% of the chemoattractant fetal bovine serum (FBS) (PAA Laboratories, Pasching, Austria) in the lower chamber (reservoir). For testing of migration inhibition upon compound treatment, compounds were used at a concentration of BMC10 (V) of prior cMINC testing. Three technical replicates per condition were used. As a control for “unstimulated” migration, medium without any chemoattractant was tested. As an endpoint specific control for “inhibited” migration, CytoD with a concentration of 200 nM was used. After 6 h incubation time, the medium was aspirated, and reservoirs were washed with DPBS. Afterwards, reservoirs were filled with EDTA dissociation solution (DPBS supplemented with 0.1% 0.5 M EDTA UltraPure pH 8.0 (Thermo Fisher Scientific, Waltham, MA, USA), and 0.18% NaCl) containing 0.25 μL/mL calcein-AM and incubated for 30 min at 37 °C. The plates were then centrifuged at 300× g for 5 min (1200 rpm, Heraeus Multifuge 1 S-R, ThermoScientific) to remove migrated cells from the membrane. The tray with 96 wells of permeable inserts was removed, and the receiver plate was measured in the spectrophotometer (TECAN, Männedorf, Switzerland) with an emission wavelength of 520 nm. After subtraction of the blank values, the number of migrated cells was normalized to that of cells stimulated with FBS.
To perform the experiments under mitochondria-dependent conditions, the cells were handled exactly in the same way, but the medium was adapted. The N2-S medium was adjusted, so that no glucose was present but galactose. The medium consisted of SILAC^TM Advanced DMEM/-F12 FLEX (Gibco/Fisher Scientific, Hampton, NH, USA), 15 μg/mL insulin, 400 μM GlutaMAX, 0.7 mM L-Arginine, 0.5 mM L-Lysine, 21.5 µM Phenol Red, 20 nM progesterone, 100 μM putrescine and 30 nM selenium, 92.5 μg/mL apotransferrin, 4.7 mg/mL galactose (18 mM). The cytokines 20 ng/mL EGF and 20 ng/mL FGF2 were always freshly added to each run.

neural crest cells (NCC) [4] = assay: Long-term transwell migration assay (18 h pre-exposure, 6 h migration); format: cell-based, human
Description: Magel et al. (2024): Inhibition of neural crest cells migration by strobilurin fungicides […]
Figure S11. Prolonged exposure of NCC in a modified transwell assay setup.
(A) Schematic illustration of the “long-term” transwell migration assay. In the beginning, NCC were plated into the insert of the transwell and treated with potential toxicants. In comparison to the standard transwell set-up, the lower medium compartment was initially not supplemented with FBS. In order to ensure a uniform concentration, picoxystrobin was added to both compartments. Cells were then incubated for 18 h (in the absence of a migration stimulus). Afterwards, 5% FBS was added to the lower compartment, to initiate NCC migration through the membrane pores. After 6 h, the number of cells that reached the downward surface of the membrane was quantified. (B) Result of concentration-dependent picoxystrobin testing in galactose medium in the long-term transwell assay. Cytochalasin D (200 nM) was used as positive control for “inhibited” migration (CytoD). “Unstimulated” migration (no FBS) is also shown. The dotted line at 75% indicates the threshold for inhibited migration. Data are expressed as means ± SEM from 3 independent biological experiments.
(also on this page, place not known: concentration -dependent long -term dott ed -4Ctrl Transwell migration [% of control ± SEM] CytoDBMC25 Picoxystrobin) […]

neural crest cells (NCC) [5] = assay: cMINC (UKN2) assay: circular migration of neural crest cells, with viability; format: cell-based, human; conditions: for Ratio: migration/cytotoxicity ratio, hit requires ≥ 1.3, HTC used where no viability effect
Description: The research group initially developed the first version of the test in 2012 [40]. The test has been further improved and characterized. To perform the cMINC assay, NCCs were thawed in N2-S Medium and seeded on the day of migration-1 (DoM-1) on a 96-well polystyrene plate (Corning, Glendale, AZ, USA) around stoppers, to create a cell-free area of 2 mm diameter (Platypus Technologies, Madison, WI, USA). The cells were resuspended in N2-S Medium supplemented with […] of the cytokines EGF and FGF, and then counted and seeded around the stoppers at a density of 95,000 cells/cm^2. After 24 h, the stoppers were removed, and the medium was exchanged. The removal of the stoppers initiates migration of the NCCs into the cell-free area. For the treatment, the 5x-concentrated toxicant solution was added to the medium 24 h after stopper removal.
On day 2, cells were stained with 533 nM calcein-AM and 1 μg/mL H-33342 (both from Sigma, Steinheim, Germany) and observed using two different channels on the Cellomics ArrayScan VTI imaging microscope (Thermo Fisher, Pittsburgh, PA, USA) to assess viability and migration. For the migration, four pictures were taken in the region of interest (ROI) (5× magnification objective). Migration data were obtained using the software “Ringassay” (http://invitrotox.uni-konstanz.de/ (accessed on 3 November 2024)), which can estimate the previously cell-free area and count the number of H-33342 and calcein-AM double-positive cells. Cell viability was assessed by taking four pictures outside of the ROI with 10× magnification objective. Viable cells were defined as H-33342 and calcein-AM double-positive cells and calculated by an automatic algorithm of the ArrayScan VTI 700 Series software as described earlier. […] Each plate included wells for testing of negative (0.1% DMSO solvent) and positive controls (200 nM cytochalasin D) in addition to the wells for blinded samples. The data from control wells were used as acceptance criteria of the assay. […] Renormalization of the concentration–response curves was performed after a visual inspection that the two lowest test-concentration data points are in the no-effect range. The average response (relative to solvent control) of the lowest two test concentrations was calculated, and all other data points of the same curve were divided by this average value. The calculations of the benchmark concentrations 10 for viability (BMC10 (V)) and 25 for migration (BMC25 (M)) were performed with the online available BMC software (http://invitrotox.uni-konstanz.de/ (accessed on 4 November 2024)).

In the case of `CO/C=C(/C(=O)OC)c1ccccc1COc1cccc(C(F)(F)F)n1` [Picoxystrobin, picoxystrobin], the “Henry's law constant” value ([1]; at 25 °C, VIVD model input) is given as 6 × 10^−4 Pa*m^3*mol⁻^1, the charge characterization ([1]; model input) is given as “neutral” and the “BMC10 (V)” value (neural crest cells (NCC) [2]) is given as 2.8 µM. For the same molecule, the “concentration range at which migration was inhibited” value (neural crest cells (NCC) [2]; galactose medium) was about 100 nM, the “concentration at which transwell migration was inhibited” value (neural crest cells (NCC) [3]) was at least 5 µM and the “concentration range at which migration was inhibited” value (neural crest cells (NCC) [4]; 18 h pre-treatment + 6 h migration) was about 600 nM. For the same molecule, the BMC25 (neural crest cells (NCC) [4]; galactose medium, 18 h pre-exposure + 6 h migration) was 0.6 µM, the Migration (neural crest cells (NCC) [5]; Pre-Screen 1, single concentration 1:1000 of stock, in most cases 100 μM) was 65 % of control and the “effect of 1% HSA on inhibition of NCC migration” value (neural crest cells (NCC) [5]; medium supplemented with 1% human serum albumin) was “did not alter the effect”. The “BMC25 (M)” value (neural crest cells (NCC) [5]; migration, primary screen, 24 h exposure) was 1e-05 M, the Ratio (neural crest cells (NCC) [5]) was 6.0 and the Ratio (neural crest cells (NCC) [5]; listed as BC2) was 6.1.
